Experimental data taken from patent US6890959B2, “Aminomethyl-phenyl-cyclohexanone derivatives” (Gruenenthal GmbH, priority 2000, dated 2005).
Where a name gives a salt, the structure may show the parent alone.

System: Male NMRI mice
Test: phenylquinone-induced writhing test in mice
Assay type: in vivo
Conditions: 10 mg/kg i.v.; phenylquinone i.p. 10 minutes after compound; writhing counted 5-20 minutes after phenylquinone
Experimental: The antinociceptive activity of the compounds according to the invention was investigated in mice in a phenylquinone-induced writhing test, as modified by I. C. Hendershot, J. Forsaith, J. Pharmacol. Exp. Ther. 125, 237-240 (1959). Male NMRI mice weighing 25-30 g were used. Groups of 10 animals per substance dose received 0.3 ml/mouse of a 0.02% aqueous solution of phenylquinone (phenylbenzoquinone, Sigma, Deisenhofen; preparation of the solution with the addition of 5% ethanol and storage in a water bath at 45° C.) administered intraperitoneally 10 minutes after intravenous administration of a compound according to the invention. The animals were placed individually in observation cages. The number of pain-induced stretching movements (so-called writhing reactions, i.e. straightening of the body with stretching of the hind extremities) was counted by means of a push-button counter for 5-20 minutes after the administration of phenylquinone. Animals which received physiological saline solution i.v. and […]. were also used as a control.
All substances were tested in a standard dose of 10 mg/kg. The percentage inhibition (% inhibition) of the writhing reactions by a substance was calculated according to the following equation: % inhibition=100−[WR treated animals/WR control×100]

Compound | % inhibition of the writhing reactions [%]
rac-trans-[4-dimethylaminomethyl-3-(3-methoxy-phenyl)-cyclohexanone]hydrochloride [Compound 3] | 92
COc1cccc(C2CC(=O)CCC2CN(C)C)c1 (racemic) [Compound 2, rac-cis-[4-Dimethylaminomethyl-3-(3-methoxy-phenyl)-cyclohexanone]hydrochloride] | 96
rac-cis-[4-Dimethylaminomethyl-3-(3-hydroxy-phenyl)-cyclohexanone [Compound 4] | 100
